Columns and labels:
Format in all cases: in vivo
[1] = test system: P388 mouse leukemia cells; experiment: Survival of mice with intraperitoneal P388 leukemia, combined use (Example 2); conditions: CDF1 mice, P388 i.p., single i.p. dose day 1, Compound A 75, CDDP 1.67, ADM 1.5, VP-16 7.5 mg/kg; for Number of days survived (average ± standard deviation): complete remission counted as 60 days; for Increased life span (ILS %): versus control
Method: P388 mouse leukemia cells (1×10^6 cells) were transplanted intraperitoneally per mouse (day 0). One drug or two drugs were intraperitoneally administered on the next day (day 1). […] The ratio of increased life span (ILS %) was determined according to the following equation: ILS %=((the number of survived days for the group treated with drug)/(the number of survived days for the control group without drug)−1)×100
The combination index (CI) showing combination effect was determined by the following equation in accordance with the method by Uchida et al. (Uchida et al., Gan to Kagaku Ryouhou (Cancer and Chemotherapy), 25, 75-78 (1998)) based on the ILS % obtained from the treatment using one drug and the ILS % obtained from the combined treatment. CI=ILS % of the combined treatment/(ILS % with J-107088 (Compound A) alone+ILS % with another drug)
CI>1: synergistic effect, CI=1: additive effect, CI<1: antagonistic effect

[2] = Toxicity of equivalent-ILS doses given intraperitoneally for 5 consecutive days (Example 4); conditions: ADM 1.5 mg/kg alone, Compound A 5 + ADM 0.3 mg/kg
Method: This dose was intraperitoneally administered to mice once a day for consecutive 5 days. Thereafter, whether the animal was alive or dead was observed, and the effect of lowering toxicity was judged. As the toxicity index, the changes in the body weight between that before the administration and that on the subsequent day after the administration were recorded.

[3] = test system: P388 mouse leukemia cells; experiment: Survival of mice with intraperitoneal P388 leukemia, equivalent-ILS doses (Example 4); conditions: CDF1 mice, P388 i.p.; single i.p. dose day 1; Compound A 25 mg/kg alone, ADM 1.5 mg/kg alone, Compound A 5 + ADM 0.3 mg/kg
Method: P388 mouse leukemia cells (1×10^6 cells) were transplanted intraperitoneally per mouse (day 0). One drug or two drugs were intraperitoneally administered on the next day (day 1). […] The ratio of increased life span (ILS %) was determined in the same manner as in Example 2.

Row | Structure (SMILES) | Number of days survived (average ± standard deviation) [1] | Increased life span (ILS %) [1] | Change in body weight (g) ([2]; before administration versus day after administration, i.p. once a day for 5 days) | Number of dead animals/number of animals per group ([2]; i.p. once a day for 5 consecutive days, Compound A 25 mg/kg alone) | Ratio of increased life span (ILS %) [3]
1 | COc1cccc2c1C(=O)c1c(O)c3c(c(O)c1C2=O)C[C@@](O)(C(=O)CO)C[C@@H]3O[C@H]1C[C@H](N)[C@H](O)[C@H](C)O1 [ADM, adriamycin (doxorubicin)] | 19.0 ± 1.9 days | 65% | +0.1 g | 0/4 | 92%
2 | COc1cc([C@@H]2c3cc4c(cc3[C@@H](O[C@@H]3O[C@@H]5CO[C@@H](C)O[C@H]5[C@H](O)[C@H]3O)[C@H]3COC(=O)[C@H]23)OCO4)cc(OC)c1O [VP-16, etoposide] | 17.4 ± 4.1 days | 51% | – | – | –
3 | [NH2][Pt]([NH2])([Cl])[Cl] [CDDP, cisplatin] | 25.4 ± 19.6 days | 121% | – | – | –

— patent publication US20050171036A1, “Use of antitumor indolopyrrolocarbazole derivative and other anticancer agent in combination” (priority 2002, published 2005)
